Laboratory results: article PMC4630399, “Charge-Based Inhibitors of Amylin Fibrillization and Toxicity” (Journal of Diabetes Research, 2015)
“Also recorded” adds a separate entry of the source. Positions of bridges follow the written chain, without caps; N, C: chain ends. Residues, ends and D or L forms follow the SMILES beside them.

How the values were obtained:
WT-amylin [1] = target: T1, WT-amylin (Homo sapiens, UniProt P10997); assay: TEM of WT-amylin fibrils formed in presence of inhibitor peptides; assay type: biochemical; set-up: purchased Biopeptide (San Diego, CA); host or cells: solid-phase synthesis; settings: 80 μM WT-amylin with 160 μM analog, 20 mM sodium phosphate pH 7.4, 1% DMSO, 37°C, 24 h
T1 sequence (P10997 34-70 limits assumed): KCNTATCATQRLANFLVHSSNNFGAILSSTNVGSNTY
Description: (§1) Samples containing 80 μM concentrations of WT-amylin and the three analogs were incubated without agitation at a temperature of 37°C in 20 mM phosphate buffer (pH 7.4). For the inhibition reactions, samples contained WT-amylin at an 80 μM concentration, together with 160 μM of Arg-1, Arg-2, or Mem-T analogs. Aliquots from the reactions were removed after 2 days for TEM imaging. The aliquots were blotted onto carbon-coated 400-mesh Maxtaform copper grids (Ted Pella Inc. Redding, CA) for 1–3 min, followed by negative staining with 1% uranyl acetate. TEM images were recorded on an FEI Tecnai G^2 Spirit BioTwin transmission electron microscope equipped with an AMT XR-40 camera.
Figure 8 TEM images of fibrils formed from 80 μM WT amylin in the presence or absence of inhibitor peptides. (a) WT amylin alone, (b) with 160 μM Arg-1, (c) with 160 μM Arg-2, and (d) with 160 μM Mem-T. Aliquots were removed for TEM imaging 24 h after the fibrillization reactions were started. Reactions were carried out in 20 mM sodium phosphate (pH 7.4), 1% DMSO (v/v), at 37°C.

[2] = ThT assay of fibrillization kinetics, peptides alone; assay type: physicochemical
Description: (§2) The time course of fibrillization in solution was monitored using 100–200 μL amylin samples, contained in white polystyrene clear bottom 96-well plates (Corning Inc., Corning, NY). Plates were covered with a clear polyester sealing tape (Fisher Scientific, Agawam, MA) to prevent evaporation. Stock solutions of 1.1 mM WT-amylin and inhibitor peptides were prepared in 100% DMSO, which dissolves and disaggregates amylin fibrils, and were stored at −80°C when not in use. Starting from the 1.1 mM stock solutions in 100% DMSO, samples for fibrillization reactions were prepared to contain 20 μM amylin and 10 μM ultrapure ThT, in 20 mM sodium phosphate buffer, pH 7.4, and a final DMSO concentration of 2% (v/v). For experiments using larger 400 μM concentrations of Arg-2 and Mem-T, the solutions were prepared by diluting 100% DMSO stock solutions of 20 mM peptide to a final DMSO concentration of 2% (v/v). Amylin was the last component added to the samples for the kinetic reactions, in order to reduce the dead time for the experiments. The plates were incubated at 25°C without agitation. Fluorescence intensity was recorded at 2 min intervals with excitation at 440 nm and emission at 490 nm on a Fluoroskan Ascent 2.5 fluorescence plate reader. Fibrillization reactions for the peptides alone were performed in triplicate and for analog-peptide inhibition of WT-amylin in duplicate, to estimate experimental uncertainties in kinetic parameters.

[3] = TEM of aggregates formed by peptides alone; assay type: physicochemical; settings: 80 μM peptide, 2 days, 20 mM phosphate pH 7.4, 37°C, no agitation
Description: as §1

WT-amylin [4] = target: T1, WT-amylin; assay: ThT assay, inhibition of WT-amylin fibrillization by analogs added in trans; assay type: biochemical; set-up: purchased Biopeptide (San Diego, CA); host or cells: solid-phase synthesis; settings: for reduction of WT-amylin fibril elongation rate: analog 0.001 to 120 μM; for reduction of WT-amylin elongation rate: Arg-1 between 0 and 200 μM
Description: as §2, with “Starting from the 1.1 mM stock solutions in 100% DMSO, samples for fibrillization reactions were prepared to contain 20 μM amylin and 10 μM ultrapure ThT, in 20 mM sodium phosphate buffer, pH 7.4, and a final DMSO concentration of 2% (v/v).” left out

[5] = system: WT-amylin cytotoxicity towards MIN6 mouse model of pancreatic β-cells; assay: Protection of MIN6 cells against WT-amylin cytotoxicity (Alamar Blue)
Description: The stock solutions were diluted with FBS-free DMEM and sonicated continuously for 5 min at 75% amplitude before use. FBS was subsequently added to a concentration of 15% (v/v), giving final amylin concentrations of 40, 80, and 160 μM. The final DMSO concentration for all cytotoxicity experiments was 1% (v/v).
Cytotoxicity was measured using the mouse insulinoma 6 (MIN6) cell line model of β-pancreatic cells, which were a gift from Dr. Anil Rustgi (University of Pennsylvania). Cells were seeded at a density of 20,000 per 100 μL in black clear-bottom 96-well plates. The cells were grown in DMEM with 15% FBS, 25 mM glucose, 2 mM L-glutamine, […] sodium pyruvate, 55 μM β-mercaptoethanol, 1000 units/mL penicillin, and 100 μg/mL streptomycin, for 20 h at 37°C in a humidified incubator with 5% CO2. […] The cells were incubated for another 24 h followed by the addition of 10% (v/v) of the redox indicator dye Alamar Blue at the concentration supplied by the manufacturer (Invitrogen). Fluorescence, due to the reduction of Alamar Blue by viable cells, was measured after 6 h, using excitation and emission wavelengths of 544 and 590 nm, respectively. Cell viability was calculated from the ratio of Alamar Blue fluorescence in treated to untreated cells. Uncertainties were calculated as the SEMs of triplicate measurements.

[6] = 20 μM peptide, 150 mM NaCl, pH 7.4, 25°C

For `CC[C@H](C)[C@H](NC(=O)[C@H](C)NC(=O)CNC(=O)[C@H](Cc1ccccc1)NC(=O)[C@H](CC(N)=O)NC(=O)[C@H](CC(N)=O)NC(=O)[C@H](CO)NC(=O)[C@H](CO)NC(=O)[C@H](Cc1c[nH]cn1)NC(=O)[C@H](CCCNC(=N)N)NC(=O)[C@H](CCCNC(=N)N)NC(=O)[C@H](CCCNC(=N)N)NC(=O)[C@H](CCCNC(=N)N)NC(=O)[C@H](C)NC(=O)[C@H](CC(C)C)NC(=O)[C@H](CCCNC(=N)N)NC(=O)[C@H](CCC(N)=O)NC(=O)[C@@H](NC(=O)[C@H](C)NC(=O)[C@@H]1CSSC[C@H](NC(=O)[C@@H](N)CCCCN)C(=O)N[C@@H](CC(N)=O)C(=O)N[C@@H]([C@@H](C)O)C(=O)N[C@@H](C)C(=O)N[C@@H]([C@@H](C)O)C(=O)N1)[C@@H](C)O)C(=O)N[C@@H](CC(C)C)C(=O)N[C@@H](CO)C(=O)N[C@@H](CO)C(=O)N[C@H](C(=O)N[C@@H](CC(N)=O)C(=O)N[C@H](C(=O)NCC(=O)N[C@@H](CO)C(=O)N[C@@H](CC(N)=O)C(=O)N[C@H](C(=O)N[C@@H](Cc1ccc(O)cc1)C(N)=O)[C@@H](C)O)C(C)C)[C@@H](C)O` [Arg-1] (H-KCNTATCATQRLARRRRHSSNNFGAILSSTNVGSNTY-NH2; disulfide 2-7 (inferred); N-terminus assumed), the “TEM of WT-amylin fibrils formed with inhibitor” value (WT-amylin [1]) was “somewhat fewer fibrils and a greater amount of short fibrils”, the “increase of lag time compared to WT-amylin” value ([2]; 20 μM peptide, 150 mM NaCl) was “about 2 fold” and the “reduction of elongation rate compared to WT-amylin” value ([2]; 20 μM peptide, 150 mM NaCl) was “about 30%”. For the same molecule, the “fibrillization detected (ThT)” value [2, 6] was “detect fibrillization”, the fibrillization lag time ([2]; 20 μM peptide, 150 mM NaCl, 20 mM sodium phosphate pH 7.4, 10 μM ThT, 2% DMSO, 25°C, no agitation, fluorescence ex 440/em 490 nm, triplicate) was 210 min and the fibril elongation rate ([2]; 20 μM peptide, 150 mM NaCl, 20 mM sodium phosphate pH 7.4, 10 μM ThT, 2% DMSO, 25°C, no agitation, triplicate) was 0.0068 min⁻¹. For the same molecule, the “aggregate morphology by TEM” value [3] was “formed much fewer fibrils; also recorded: formed a larger proportion of short fibrils than WT-amylin; also recorded: fewer fibrils with shorter lengths”, the “effect on WT-amylin fibrillization lag time” value (WT-amylin [4]; 20 μM WT-amylin, 150 mM NaCl) was “no effects on the lag times within experimental uncertainty” and the “effect on steady-state fluorescence plateau” value (WT-amylin [4]; 20 μM WT-amylin, 150 mM NaCl) was “reduction in the steady-state fluorescence plateaus; also recorded: only observed to decrease with the Arg-1 analog”. The “reduction of WT-amylin fibril elongation rate” value (WT-amylin [4]; 20 μM WT-amylin, 150 mM NaCl) was 8–10 fold, the “reduction of WT-amylin elongation rate” value (WT-amylin [4]; 20 μM WT-amylin, 150 mM NaCl) was 7 fold and the “reduction of WT-amylin elongation rate” value (WT-amylin [4]; 20 μM WT-amylin, absence of salt) was 4 fold. The “effect on WT-amylin lag times, elongation rates and fluorescence plateaus” value (WT-amylin [4]; 80 μM WT-amylin, increasing Arg-1, 150 mM NaCl) was “increases in lag times with increasing Arg-1 concentration as well as decreases in elongation rates and steady-state fluorescence plateaus”, the “protection against WT-amylin cytotoxicity (overall)” value ([5]; MIN6 cells, 80 μM WT-amylin, up to 2 : 1 inhibitor : WT-amylin) was “protects against WT-amylin cytotoxicity” and the IC50 ([5]; mouse, 24 h) was about 50 µM.

In the case of `CC(C)C[C@H](NC(=O)[C@H](CCCNC(=N)N)NC(=O)[C@H](CCC(N)=O)NC(=O)[C@@H](NC(=O)[C@H](C)NC(=O)[C@@H]1CSSC[C@H](NC(=O)[C@@H](N)CCCCN)C(=O)N[C@@H](CC(N)=O)C(=O)N[C@@H]([C@@H](C)O)C(=O)N[C@@H](C)C(=O)N[C@@H]([C@@H](C)O)C(=O)N1)[C@@H](C)O)C(=O)N[C@@H](C)C(=O)N[C@@H](CC(N)=O)C(=O)N[C@@H](Cc1ccccc1)C(=O)N[C@@H](CC(C)C)C(=O)N[C@H](C(=O)N[C@@H](Cc1c[nH]cn1)C(=O)N[C@@H](CO)C(=O)N[C@@H](CO)C(=O)N[C@@H](CC(N)=O)C(=O)N[C@@H](CC(N)=O)C(=O)N[C@@H](CCCNC(=N)N)C(=O)N[C@@H](CCCNC(=N)N)C(=O)N[C@@H](CCCNC(=N)N)C(=O)N[C@@H](CCCNC(=N)N)C(=O)N[C@@H](CC(C)C)C(=O)N[C@@H](CO)C(=O)N[C@@H](CO)C(=O)N[C@H](C(=O)N[C@@H](CC(N)=O)C(=O)N[C@H](C(=O)NCC(=O)N[C@@H](CO)C(=O)N[C@@H](CC(N)=O)C(=O)N[C@H](C(=O)N[C@@H](Cc1ccc(O)cc1)C(N)=O)[C@@H](C)O)C(C)C)[C@@H](C)O)C(C)C` [Arg-2] (H-KCNTATCATQRLANFLVHSSNNRRRRLSSTNVGSNTY-NH2; disulfide 2-7 (inferred); N-terminus assumed), the “TEM of WT-amylin fibrils formed with inhibitor” value (WT-amylin [1]) is reported as “somewhat fewer fibrils and a greater amount of short fibrils”, the “fibrillization detected (ThT)” value [2, 6] is reported as “failed to fibrillize” and the “fibrillization detected (ThT)” value ([2]; 400 μM peptide, pH 7.4, 2% DMSO, 25°C) is reported as “still failed to fibrillize”. The “fibrillization of peptide on its own (overall)” value ([2]; ThT, all conditions tested) was “did not form fibrils under any of the conditions tested; also recorded: did not form fibrils even at high concentrations of the peptide and salt”, the “aggregate morphology by TEM” value [3] was “only detected amorphous aggregates with nonfibrillar morphologies; also recorded: few if any fibrils” and the “effect on WT-amylin fibrillization lag time” value (WT-amylin [4]; 20 μM WT-amylin, 150 mM NaCl) was “increased with increasing concentrations”. For the same molecule, the “reduction of WT-amylin fibril elongation rate” value (WT-amylin [4]; 20 μM WT-amylin, 150 mM NaCl) was 8–10 fold, the “salt dependence of inhibition of elongation rate” value (WT-amylin [4]; 20 μM WT-amylin, varying NaCl) was “A very similar effect is seen; also recorded: more effective at physiological salt concentration or higher than in the absence of salt” and the “protection against WT-amylin cytotoxicity” value ([5]; 160 μM analog : 80 μM WT-amylin (2 : 1)) was “protects against cytotoxicity”.
